Here are results for one molecule from patent US6376498B1, “Pharmaceutical, cosmetic and/or food composition with antioxidant properties” (Universite Catholique de Louvain, priority 1997, dated 2002).

Data set [1] in a line: Stability towards oxygen (powder and in aqueous and organic solvents; HPLC and TLC analysis). The format is physicochemical. An excerpt:
In fact, this molecule is not changed by remaining in an aqueous solvent exposed to air for several days.

Data set [2] has as its system rat hepatocytes. Kind of data set: Toxicity on primary cultures of rat hepatocytes (24 h, total proteins, Bradford method). It counts as cell-based. The following applies: 1.3×10^−5 to 5×10^−4 M CLM. As for the experimental part:
(§1) Coetenteramine was applied to primary cultures of rat hepatocytes cultured in microplates (20,000 cells per well, 200 μl ). The doses of CLM ranged from 1.3×10^−5 to 5×10^−4 M. After a period of 24 hours, their survival was evaluated by measuring the contents of total proteins in each well (Bradford method). […] Similar results were obtained on human fibroblasts (MRC-5) and human intestinal cells (CACO2).

The test system of data set [3] is human fibroblasts (MRC-5). Kind of data set: Toxicity on human fibroblasts (MRC-5). The format is cell-based. The procedure: as §1
Data set [4] deals with human intestinal cells (CACO2). Kind of data set: Toxicity on human intestinal cells (CACO2). It counts as cell-based. As for the experimental part: as §1
The test system of data set [5] is low-density lipoproteins (LDL). Kind of data set: In vitro oxidation of LDL induced by AAPH (joint dienes, absorbance at 234 nm). The format is biochemical. As to conditions: increasing concentrations of CLM, 37° C. An excerpt: (§2) Oxidation of the polyunsaturated fatty acids of LDL is accompanied by the formation of joint dienes, which have a maximum absorbance at 234 nm. These joint dienes result from rearrangement of the double bonds of polyunsaturated fatty acids following removal of a […] hydrogen. The increase in the absorption of joint dienes can be measured directly in solution without resorting to extraction of the lipids. A latency phase during which few dienes are produced, a propagation phase during which the absorbance at 234 nm increases rapidly to reach a plateau and a decomposition phase where the aldehydes formed also absorb in the region of 210-240 nm, thus producing a new increase in the absorbance at 234 nm, are observed in succession. Measurement of the conjugated dienes currently seems to be the best indicator of the oxidizability of LDL if pure LDL preparations are available (Esterbauer et al. (1989)). […]
(§3) To measure the joint dienes, a solution of LDL (final concentration of 50 μg protein/ml PBS buffer, pH 7.4) is incubated in the presence of 5 μM copper or […] and in the absence or in the presence of varying concentrations of CLM in a quartz cell with an optical path of 1 cm. The absorbances at 234 nm of various samples are measured as a function of time on a UV-visible spectrophotometer (DU-8, Beckman). […]

Data set [6] concerns human low-density lipoproteins. Kind of data set: In vitro oxidation of LDL by copper (joint dienes at 234 nm; TBARS). It counts as biochemical.
Text: as §2, §3

A further data set relates to hepatocytes. Kind of data set: Protection of hepatocytes subjected to nitrofurantoin (MTT survival). As to conditions: 3×10^−4 M NF for 6 hours, 5×10^−5 M CLM, MTT method, % of the controls. The format is cell-based, rat. The procedure:
(§4) Primary cultures of hepatocytes were subjected to the action of tert-butyl hydroperoxide (t-BHP) and nitrofurantoin (NF). The action of t-BHF is associated with its direct oxidizing power, while the action of NF results from the production of superoxide anions during its metabolization by the cytochrome P450 of cells.
FIG. 4 illustrates the survival of hepatocytes subjected to the action of 3×10^−4 M NF for 6 hours. At the end of this treatment, the survival (estimated by the MTT method) was 18% in the control groups. If CLM is added to the culture medium, the survival of the hepatocytes increases regularly, to reach 70% of the controls at 5×10^−5 M CLM.
(In general: Tetrazolium dyes change colour on reduction, which living cells bring about.)

Another data set relates to fibroblasts. Kind of data set: Resistance of fibroblasts subjected to t-BHP (MTT cytotoxicity curve). The format is cell-based. As to conditions: 10^−5 M CLM, MTT test. The source says:
FIG. 5 illustrates the increase in the resistance of fibroblasts subjected to the action of t-BHP by means of 10^−5 M CLM.

For data set [7], the system named is rat hepatocytes. Kind of data set: Protection of hepatocytes treated with t-BHP (LDH release, mortality). The format is cell-based. As for the experimental part:
as §4
The mortality, which is 75% in the controls, reaches only a few % in the presence of 50 μM CLM.
On the technique in general: Release of lactate dehydrogenase indicates damage to the cell membrane.

On to `Nc1ncc(-c2ccc(O)cc2)nc1Cc1ccccc1` [Coelenteramine], for which, in [1] (aqueous solvent exposed to air for several days), the “degradation product identified by HPLC and TLC” value is “no degradation product”. In addition, the stability towards oxygen entry in data set [1] (powder and after solubilization in aqueous and organic solvents) is “excellent stability towards oxygen”. Besides, the “toxicity (percentage survival of controls)” value in the data set on rat hepatocytes [2] was “not at all toxic”. The toxicity result in data set [3] and in [4] was “absence of toxicity” throughout. Besides, the “appearance of joint dienes in the oxidation of LDL by AAPH” value in data set [5] is “significant slowing down in the appearance of joint dienes”. The “protective action on LDL with respect to oxidation by copper” value in data set [6] (5 μM copper, 30° C.) is “significant protective action”. In addition, the “appearance of TBARS (MDA) in the oxidation of LDL” value in data set [6] (human LDL oxidized by Cu2+, as a function of time) was “delay in the appearance of TBARS”. Further, the survival of hepatocytes in the data set with hepatocytes came to 70%. Moreover, the “cytotoxicity curve of t-BHP” value in the data set on fibroblasts was “significant displacement of the cytotoxicity curve”. Also, in the data set on rat hepatocytes [7] (50 μM CLM), the mortality entry is given as “only a few %”. Also, the “release of lactate dehydrogenase (LDH)” value with rat hepatocytes [7] (CLM 10 and 50 μM) was “reduction in the release of lactate dehydrogenase”.
